Columns and labels:
[1] = target: T1, AR (AR-full length) in LNCaP cells (Homo sapiens, UniProt P10275, T878A); assay: LNCaP Androgen Receptor Imaging Assay (immunofluorescence of endogenous nuclear AR); type: cell-based; settings: 24 h incubation; for DC50: concentration giving 50% of maximum degradation of AR per curve fit, single experiment or average of two or more; for Dmax: LNCaP, maximum degradation observed, normalized as % of positive control (prior art AR PROTAC at 3 μM)
T1 construct: the prostate cancer cell line LNCaP (expressing AR-full length); endogenous in cells; host or cells: LNCaP
Method in brief: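 Endogenous nuclear AR level was imaged by immunofluorescence after 24 h compound exposure (12-point dose response, 0.3% DMSO, 37° C./5% CO2) in LNCaP cells. Data were expressed as % of a 3 μM prior-art AR PROTAC control and fitted (bell fit where a hook appeared) to give DC50 and maximum degradation Dmax.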

[2] = target: T2, AR (L702H) in LNCaP cells (Homo sapiens, UniProt P10275, L702H/T878A); assay: LNCaP Androgen Receptor L702H Imaging Assay (LNCaP cells engineered by CRISPR/Cas9); type: cell-based; settings: LNCaP cells with AR L702H mutation, 24 h incubation; for DC50: concentration giving 50% of maximum degradation of AR (L702H) per curve fit; for Dmax: LNCaP, maximum degradation observed, normalized as % of positive control
T2 construct: engineered to introduce the mutation L702H into the AR gene using CRISPR/Cas9; endogenous in cells; host or cells: LNCaP cells edited by CRISPR/Cas9 at the AR gene
Method in brief: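 AR (L702H) degradation, expressed as DC50 and Dmax from curve fits normalized to a positive degrader control, was measured by high-content imaging of anti-AR immunofluorescence. The engineered LNCaP line was dosed over 12 concentrations for 24 h, 0.3% DMSO final, before PFA fixation.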

T2 sequence (P10275 whole entry L702H/T878A): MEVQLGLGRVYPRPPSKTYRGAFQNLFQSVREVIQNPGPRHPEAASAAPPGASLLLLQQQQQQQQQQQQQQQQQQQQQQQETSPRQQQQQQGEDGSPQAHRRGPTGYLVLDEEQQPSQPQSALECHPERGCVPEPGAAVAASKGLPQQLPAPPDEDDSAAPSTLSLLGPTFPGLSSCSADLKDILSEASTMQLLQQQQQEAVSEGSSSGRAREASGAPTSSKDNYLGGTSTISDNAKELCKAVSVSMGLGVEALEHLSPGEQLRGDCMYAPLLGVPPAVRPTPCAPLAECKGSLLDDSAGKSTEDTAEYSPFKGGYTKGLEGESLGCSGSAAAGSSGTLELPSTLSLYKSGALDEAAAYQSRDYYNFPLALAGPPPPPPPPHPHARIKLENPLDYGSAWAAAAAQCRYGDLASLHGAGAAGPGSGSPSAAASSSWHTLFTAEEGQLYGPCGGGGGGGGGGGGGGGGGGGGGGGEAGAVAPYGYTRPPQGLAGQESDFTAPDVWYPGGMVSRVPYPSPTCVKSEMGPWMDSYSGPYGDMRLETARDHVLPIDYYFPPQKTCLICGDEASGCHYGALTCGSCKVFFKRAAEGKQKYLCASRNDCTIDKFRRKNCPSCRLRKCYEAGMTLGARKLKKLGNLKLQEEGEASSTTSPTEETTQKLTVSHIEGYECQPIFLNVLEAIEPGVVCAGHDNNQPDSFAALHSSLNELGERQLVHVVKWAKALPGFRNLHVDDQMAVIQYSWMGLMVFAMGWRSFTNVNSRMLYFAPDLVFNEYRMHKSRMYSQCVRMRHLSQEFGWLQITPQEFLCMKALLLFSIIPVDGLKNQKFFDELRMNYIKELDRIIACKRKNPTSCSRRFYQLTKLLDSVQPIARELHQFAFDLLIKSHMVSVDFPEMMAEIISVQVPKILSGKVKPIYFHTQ
T2 sequence (Q96SW2 whole entry partner): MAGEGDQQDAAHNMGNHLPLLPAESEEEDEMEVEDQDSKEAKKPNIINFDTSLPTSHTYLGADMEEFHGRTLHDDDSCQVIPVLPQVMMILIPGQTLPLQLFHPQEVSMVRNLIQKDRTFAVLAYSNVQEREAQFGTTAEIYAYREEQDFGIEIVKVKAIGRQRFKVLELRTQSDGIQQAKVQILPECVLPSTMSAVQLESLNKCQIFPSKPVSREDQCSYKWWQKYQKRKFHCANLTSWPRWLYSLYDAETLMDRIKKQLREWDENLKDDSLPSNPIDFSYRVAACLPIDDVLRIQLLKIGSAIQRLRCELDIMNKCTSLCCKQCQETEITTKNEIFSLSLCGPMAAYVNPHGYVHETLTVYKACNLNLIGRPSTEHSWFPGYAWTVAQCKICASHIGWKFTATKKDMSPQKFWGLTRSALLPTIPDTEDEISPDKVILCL
T1 sequence (P10275 whole entry T878A): as the sequence (P10275 whole entry L702H/T878A) above, with H702L counted along it
T1 sequence (Q96SW2 whole entry partner): as the sequence (Q96SW2 whole entry partner) above

Structure (SMILES)	DC50 [1] [nM]	Dmax [1] [%]	DC50 [2] [nM]	Dmax [2] [%]
N#Cc1c[nH]c2c(N3CCC(c4cccc(N5CCC(CN6CCN(c7ccc8c(c7)CN(C7CCC(=O)NC7=O)C8=O)CC6)CC5)c4)CC3)ccc(Cl)c12 (stereo not shown) [Example 113, 4-Chloro-7-(4-{3-[4-({4-[2-(2,6-dioxopiperidin-3-yl)-1-oxo-2,3-dihydro-1H-isoindol-5-yl]piperazin-1-yl}methyl)piperidin-1-yl]phenyl}piperidin-1-yl)-1H-indole-3-carbonitrile]	19	92	36	76
Cc1cc2c(N3CCC(=O)NC3=O)cccc2n1C1CCN(CC2CCN(c3ccc([C@@H]4CCCN(c5ccc(Cl)c6c(C#N)c[nH]c56)C4)cc3)CC2)CC1 [Example 114, 4-Chloro-7-[(3S)-3-{4-[4-({4-[4-(2,4-dioxo-1,3-diazinan-1-yl)-2-methyl-1H-indol-1-yl]piperidin-1-yl}methyl)piperidin-1-yl]phenyl}piperidin-1-yl]-1H-indole-3-carbonitrile]	19	101	31	101
Cc1cc2c(N3CCC(=O)NC3=O)cccc2n1C1CCN(CC2CCN(c3ccc(C4CCN(c5ccc(Cl)c6c(C#N)c[nH]c56)CC4)cc3)CC2)CC1 [Example 123, 4-Chloro-7-(4-{4-[4-({4-[4-(2,4-dioxo-1,3-diazinan-1-yl)-2-methyl-1H-indol-1-yl]piperidin-1-yl}methyl)piperidin-1-yl]phenyl}piperidin-1-yl)-1H-indole-3-carbonitrile]	14	95	18	104
N#Cc1c[nH]c2c(N3CCC(c4cnc(N5CCC(CN6CCN(c7ccc8c(c7)CN(C7CCC(=O)NC7=O)C8=O)CC6)CC5)nc4)CC3)ccc(Cl)c12 (stereo not shown) [Example 124, 4-Chloro-7-(4-{2-[4-({4-[2-(2,6-dioxopiperidin-3-yl)-1-oxo-2,3-dihydro-1H-isoindol-5-yl]piperazin-1-yl}methyl)piperidin-1-yl]pyrimidin-5-yl}piperidin-1-yl)-1H-indole-3-carbonitrile]	3	95	9	93
N#Cc1c[nH]c2c(N3CCC(c4cnc(N5CCC(CN6CCC(n7ccc8c(N9CCC(=O)NC9=O)cccc87)CC6)CC5)nc4)CC3)ccc(Cl)c12 [Example 125, 4-Chloro-7-(4-{2-[4-({4-[4-(2,4-dioxo-1,3-diazinan-1-yl)-1H-indol-1-yl]piperidin-1-yl}methyl)piperidin-1-yl]pyrimidin-5-yl}piperidin-1-yl)-1H-indole-3-carbonitrile]	4	102	9	93
N#Cc1c[nH]c2c(N3CCC(c4ccc(N5CCO[C@H](CN6CCN(c7ccc8c(c7)CN(C7CCC(=O)NC7=O)C8=O)CC6)C5)cc4)CC3)ccc(F)c12 (stereo partly drawn) [Example 126, 7-(4-{4-[(2R)-2-({4-[2-(2,6-dioxopiperidin-3-yl)-1-oxo-2,3-dihydro-1H-isoindol-5-yl]piperazin-1-yl}methyl)morpholin-4-yl]phenyl}piperidin-1-yl)-4-fluoro-1H-indole-3-carbonitrile]	4	98	2	107
N#Cc1c[nH]c2c(N3CCC(c4ccc(N5CCO[C@H](CN6CCN(c7ccc8c(c7)CN(C7CCC(=O)NC7=O)C8=O)CC6)C5)cc4)CC3)ccc(Cl)c12 (stereo partly drawn) [Example 127, 4-Chloro-7-(4-{4-[(2R)-2-({4-[2-(2,6-dioxopiperidin-3-yl)-1-oxo-2,3-dihydro-1H-isoindol-5-yl]piperazin-1-yl}methyl)morpholin-4-yl]phenyl}piperidin-1-yl)-1H-indole-3-carbonitrile]	4	100	4	110
N#Cc1c[nH]c2c(N3CCC(c4ccc(N5CC6(CCC(CN7CCN(c8ccc9c(c8)CN(C8CCC(=O)NC8=O)C9=O)CC7)CC6)C5)cc4)CC3)ccc(F)c12 (stereo not shown) [Example 128, 7-(4-{4-[7-({4-[2-(2,6-Dioxopiperidin-3-yl)-1-oxo-2,3-dihydro-1H-isoindol-5-yl]piperazin-1-yl}methyl)-2-azaspiro[3.5]nonan-2-yl]phenyl}piperidin-1-yl)-4-fluoro-1H-indole-3-carbonitrile]	26	102	61	103
N#Cc1c[nH]c2c(N3CCC(c4ccc(N5CC6(CCC(CN7CCN(c8ccc9c(c8)CN(C8CCC(=O)NC8=O)C9=O)CC7)CC6)C5)cc4)CC3)ccc(Cl)c12 (stereo not shown) [Example 129, 4-Chloro-7-(4-{4-[7-({4-[2-(2,6-dioxopiperidin-3-yl)-1-oxo-2,3-dihydro-1H-isoindol-5-yl]piperazin-1-yl}methyl)-2-azaspiro[3.5]nonan-2-yl]phenyl}piperidin-1-yl)-1H-indole-3-carbonitrile]	20	95	29	99
N#Cc1c[nH]c2c(N3CCC[C@@H](c4ccc(N5CC6(CCC(CN7CCN(c8ccc9c(c8)CN(C8CCC(=O)NC8=O)C9=O)CC7)CC6)C5)cc4)C3)ccc(Cl)c12 (stereo partly drawn) [Example 130, 4-Chloro-7-[(3S)-3-{4-[7-({4-[2-(2,6-dioxopiperidin-3-yl)-1-oxo-2,3-dihydro-1H-isoindol-5-yl]piperazin-1-yl}methyl)-2-azaspiro[3.5]nonan-2-yl]phenyl}piperidin-1-yl]-1H-indole-3-carbonitrile]	31	99	42	78
N#Cc1c[nH]c2c(N3CCC[C@@H](c4ccc(N5CC6(CCC(CN7CCC(n8ccc9c(N%10CCC(=O)NC%10=O)cccc98)CC7)CC6)C5)cc4)C3)ccc(Cl)c12 [Example 131, 4-Chloro-7-[(3S)-3-{4-[7-({4-[4-(2,4-dioxo-1,3-diazinan-1-yl)-1H-indol-1-yl]piperidin-1-yl}methyl)-2-azaspiro[3.5]nonan-2-yl]phenyl}piperidin-1-yl]-1H-indole-3-carbonitrile]	17	105	41	94
Cn1c(C2CCN(CC3CCN(c4ccc([C@H]5CCCN(c6ccc(Cl)c7c(C#N)n[nH]c67)C5)cc4)CC3)CC2)cc2ccc(N3CCC(=O)NC3=O)cc21 [Example 132, 4-Chloro-7-[(3R)-3-{4-[4-({4-[6-(2,4-dioxo-1,3-diazinan-1-yl)-1-methyl-1H-indol-2-yl]piperidin-1-yl}methyl)piperidin-1-yl]phenyl}piperidin-1-yl]-1H-indazole-3-carbonitrile]	6	98	5	115
N#Cc1n[nH]c2c(N3CCC[C@@H](c4ccc(N5CCC(CN6CCN(c7ccc8c(c7)CN(C7CCC(=O)NC7=O)C8=O)CC6)CC5)cc4)C3)ccc(F)c12 (stereo partly drawn) [Example 133, 7-[(3S)-3-{4-[4-({4-[2-(2,6-Dioxopiperidin-3-yl)-1-oxo-2,3-dihydro-1H-isoindol-5-yl]piperazin-1-yl}methyl)piperidin-1-yl]phenyl}piperidin-1-yl]-4-fluoro-1H-indazole-3-carbonitrile]	4	103	8	97
N#Cc1n[nH]c2c(N3CCC[C@@H](c4ccc(N5CCC(CN6CCC(n7ccc8c(N9CCC(=O)NC9=O)cccc87)CC6)CC5)cc4)C3)ccc(F)c12 [Example 134, 7-[(3S)-3-{4-[4-({4-[4-(2,4-Dioxo-1,3-diazinan-1-yl)-1H-indol-1-yl]piperidin-1-yl}methyl)piperidin-1-yl]phenyl}piperidin-1-yl]-4-fluoro-1H-indazole-3-carbonitrile]	5	106	22	94
N#Cc1c[nH]c2c(N3CCC(c4ccc(N5CC6(CCC(CN7CCC(n8ccc9c(N%10CCC(=O)NC%10=O)cccc98)CC7)CC6)C5)cc4)CC3)ccc(F)c12 [Example 135, 7-(4-{4-[7-({4-[4-(2,4-Dioxo-1,3-diazinan-1-yl)-1H-indol-1-yl]piperidin-1-yl}methyl)-2-azaspiro[3.5]nonan-2-yl]phenyl}piperidin-1-yl)-4-fluoro-1H-indole-3-carbonitrile]	24	105	81	91
Cn1c(C2CCN(CC3CCN(c4ccc([C@H]5CCCN(c6ccc(Cl)c7c(C#N)c[nH]c67)C5)cc4)CC3)CC2)cc2cc(F)c(N3CCC(=O)NC3=O)cc21 [Example 136, 4-Chloro-7-[(3R)-3-{4-[4-({4-[6-(2,4-dioxo-1,3-diazinan-1-yl)-5-fluoro-1-methyl-1H-indol-2-yl]piperidin-1-yl}methyl)piperidin-1-yl]phenyl}piperidin-1-yl]-1H-indole-3-carbonitrile]	10	104	14	108
